The source of these data is BindingDB's records for doi:10.1021/ml100283h (2011).

In data set [1] the target is T1, Cytochrome P450 11B2, mitochondrial (Homo sapiens, UniProt P19099).
T1 sequence (P19099 whole entry): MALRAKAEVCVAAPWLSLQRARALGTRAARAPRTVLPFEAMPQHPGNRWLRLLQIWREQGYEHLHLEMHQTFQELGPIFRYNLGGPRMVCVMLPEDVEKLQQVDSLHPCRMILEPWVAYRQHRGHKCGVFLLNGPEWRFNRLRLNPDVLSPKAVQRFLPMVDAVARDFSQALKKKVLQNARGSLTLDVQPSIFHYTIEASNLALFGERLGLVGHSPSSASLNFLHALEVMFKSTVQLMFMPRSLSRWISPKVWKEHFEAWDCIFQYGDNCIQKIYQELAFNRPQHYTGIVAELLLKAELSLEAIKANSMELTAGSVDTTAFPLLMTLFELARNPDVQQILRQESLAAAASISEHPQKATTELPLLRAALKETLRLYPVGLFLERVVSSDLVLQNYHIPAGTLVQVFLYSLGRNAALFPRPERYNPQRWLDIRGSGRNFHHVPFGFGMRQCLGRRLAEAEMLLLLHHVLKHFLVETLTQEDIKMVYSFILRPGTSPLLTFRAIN
As to the kind of experiment: Inhibition of human CYP11B2 expressed in hamster V79 MZ cells using [3H] 11 deoxycorticosterone as substrate by HPLC radioflow detector.

The target in data set [2] is T2, Cytochrome P450 11B1, mitochondrial (Homo sapiens, UniProt P15538).
T2 sequence (P15538 whole entry): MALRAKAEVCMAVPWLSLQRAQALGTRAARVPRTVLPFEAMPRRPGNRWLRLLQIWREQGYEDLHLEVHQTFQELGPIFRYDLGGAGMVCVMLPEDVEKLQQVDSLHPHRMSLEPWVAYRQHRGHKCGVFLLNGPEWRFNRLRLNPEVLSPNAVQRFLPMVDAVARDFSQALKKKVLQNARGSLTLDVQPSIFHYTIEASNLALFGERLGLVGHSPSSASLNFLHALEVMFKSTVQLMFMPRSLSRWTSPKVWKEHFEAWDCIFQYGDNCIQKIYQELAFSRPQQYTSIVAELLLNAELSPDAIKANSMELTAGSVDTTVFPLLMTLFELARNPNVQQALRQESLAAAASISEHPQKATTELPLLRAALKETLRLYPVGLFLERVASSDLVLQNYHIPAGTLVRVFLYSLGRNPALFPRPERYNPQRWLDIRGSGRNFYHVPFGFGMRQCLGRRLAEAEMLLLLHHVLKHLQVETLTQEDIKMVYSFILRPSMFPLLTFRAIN
Nature of the data set: Inhibition of human CYP11B1 expressed in hamster V79 MZ cells using [3H] 11 deoxycorticosterone as substrate by HPLC radioflow detector.

The term IC50 denotes the point on the concentration scale where inhibition reaches its midpoint.

As to `c1ccc(-c2ccc(Cn3ccnc3)cn2)cc1` [5-((1H-imidazol-1-yl)methyl)-2-phenylpyridine], the IC50 in data set [1] is 2770 nM; in data set [2] it was 152 nM.
